Consider one compound from paper PMC10224441, “Structural Manipulations of Marine Natural Products Inspire a New Library of 3-Amino-1,2,4-Triazine PDK Inhibitors Endowed with Antitumor Activity in Pancreatic Ductal Adenocarcinoma” (Marine Drugs, 2023).

For one series, the system named is PSN-1 spheroids. In words: 3D spheroid cytotoxicity, acid phosphatase (APH) assay, PSN-1. In kind it is cell-based. The note with it: Homo sapiens, PSN1, 72 h, acid phosphatase (APH) test, read-out: IC50 (µM) ± S.D. PSN-1 (3D spheroids). As for the experimental part:
Prompted by these encouraging results, we also screened the newly developed 1,2,4-triazine compounds against 3D spheroids of PDAC KRAS wild-type and mutant cells, to further estimate their anticancer potential in a more predictive environment. […] The PDAC cancer spheroids were treated with tested compounds for 72 h, and cell viability was assessed by means of the acid phosphatase (APH) assay (Table 3). The efficacy of gemcitabine as well as of DCA and DAP was assessed under the same experimental conditions.
Spheroid cultures were obtained by seeding 2.5 × 10^3 PSN-1 cancer cells/well in a round-bottom non-treated tissue culture 96-well plate (Greiner Bio-one, Kremsmünster, Austria) in phenol red-free RPMI-1640 medium (Sigma Chemical Co, St. Louis, MO, USA) containing 10% fetal calf serum and supplemented with 20% methylcellulose stock solution.
An APH-modified assay was used for determining cell viability in 3D spheroids, as previously described. Briefly, the pre-seeded spheroids were treated with fresh medium containing the compound to be studied at the appropriate concentration (range 2.5–200 μM). Triplicate cultures were established for each treatment. After 72 h, each well was treated with 100 μL of the assay buffer (0.1 M sodium acetate, 0.1% Triton-X-100, supplemented with ImmunoPure p-nitrophenyl phosphate; Sigma Chemical Co.) and, following 3 h of incubation, 10 μL of 1 M NaOH solution were added. The inhibition of the cell growth induced by the tested compounds was detected by measuring the absorbance of each well at 405 nm, using a Bio-Rad 680 microplate reader. The mean absorbance for each drug dose was expressed as a percentage of the control untreated well absorbance (T/C) and plotted vs. drug concentration. IC50 values, the drug concentrations that reduce the mean absorbance at 405 nm 50% of those in the untreated control wells, were calculated by the four-parameter logistic (4-PL) model. The evaluation was based on means from at least four independent experiments.

In a further series the target is T1, recombinant human PDK1 (Homo sapiens, UniProt Q15118).
T1 construct: purchased Abcam
T1 sequence (Q15118 29-436): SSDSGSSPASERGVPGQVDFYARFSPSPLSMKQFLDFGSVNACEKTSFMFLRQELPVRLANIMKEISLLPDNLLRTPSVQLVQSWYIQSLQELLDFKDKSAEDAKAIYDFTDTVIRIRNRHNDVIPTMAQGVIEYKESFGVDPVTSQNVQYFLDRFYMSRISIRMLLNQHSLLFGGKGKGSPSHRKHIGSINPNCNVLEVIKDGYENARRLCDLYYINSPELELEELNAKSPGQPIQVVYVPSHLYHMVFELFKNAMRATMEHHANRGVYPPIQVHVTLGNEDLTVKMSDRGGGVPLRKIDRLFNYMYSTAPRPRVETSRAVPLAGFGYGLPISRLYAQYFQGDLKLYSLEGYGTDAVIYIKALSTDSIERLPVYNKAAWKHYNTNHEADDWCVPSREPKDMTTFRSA
In words: PDK1 ADPGlo Kinase Assay. It counts as biochemical. Here is the method: The ability of the tested compounds to hamper the activity of PDK1-4 isoforms was firstly evaluated by means of a chemioluminescent assay, the ADPGlo™ Kinase Assay kit (Promega Corporation, Madison, WI, USA).
(§1) The in vitro inhibitory activity of tested compounds on recombinant human PDK1-4 isoforms (Abcam, Cambridge, MA, USA) was evaluated by using the ADPGlo™ Kinase Assay kit from Promega (Promega Corporation, Madison, WI, USA) following the instructions of the manufacturer, as previously described.
Background: ADP-Glo turns the ADP formed in a reaction into a luminescent signal.

The next series addresses recombinant human HSP90 (Homo sapiens, UniProt P07900). In words: HSP90 inhibition assay (Transcreener ADP kit). It counts as biochemical. As for the experimental part: Since the ATP binding pockets in PDKs and HSP90 are similar and taking into consideration that these 1,2,4-triazine derivatives conserved a chemical scaffold resembling that of the well-known Hsp90 inhibitor Ganetespib, the most performant PDK inhibitors 4d, 4f, 4h, 5d, 5f, 5h and 5j were also screened for their ability to target HSP90.
The in vitro inhibitory activity of tested compounds on recombinant human HSP90 was assessed by The Transcreener™ ADP kit (Bellbrook Labs, Madison, WI, USA) according to the manufacturer’s protocol as previously described.

Series [1] has as its system PSN-1 cells (KRAS-mutant PDAC). In words: 2D cytotoxicity, MTT assay, PSN-1. In kind it is cell-based. The conditions noted are these: Homo sapiens, PSN1; 72 h exposure, MTT test, 2D culture; read-out: IC50 (µM) ± S.D. PSN-1 (2D). Here is the method:
(§2) All newly developed 1,2,4-amino-triazine compounds were screened for their cytotoxic activity against two human PDAC cell lines, namely, a KRAS-wild-type PDAC cell line (BxPC-3 cells) and a KRAS-mutant PDAC cell line (PSN-1 cells). […] The cytotoxicity parameters, expressed in terms of IC50 and obtained after 72 h of drug exposure by MTT assay, are reported in Table 3.
(§3) All tested compounds were dissolved in DMSO just before the experiment, and a calculated amount of drug solution was added to the cell growth medium to a final solvent concentration of 0.5%, which had no detectable effects on cell viability.
(§4) Human pancreatic PSN-1 and BxPC-3 carcinoma cell lines were obtained by American Type Culture Collection (ATCC, Rockville, MD, USA). Cell lines were maintained in the logarithmic phase at 37 °C in a 5% carbon dioxide atmosphere using RPMI-1640 medium (EuroClone) containing 10% fetal calf serum (EuroClone, Milan, Italy), antibiotics (50 units/mL penicillin and 50 μg/mL streptomycin) and 2 mM l-glutamine.
(§5) The growth inhibitory effect on tumor cells was evaluated by means of MTT assay. Briefly, 5 × 10^3 cells/well were seeded in 96-well microplates in a growth medium (100 μL). After 24 h, the medium was removed and replaced with a fresh one containing the compound to be studied at the appropriate concentration. Triplicate cultures were established for each treatment. After 72 h, each well was treated with 10 μL of a 5 mg/mL MTT saline solution, and following 5 h of incubation, 100 μL of a sodium dodecyl sulfate (SDS) solution in HCl 0.01 M was added. After overnight incubation, cell growth inhibition was detected by measuring the absorbance of each well at 570 nm using a Bio-Rad 680 microplate reader. The mean absorbance for each drug dose was expressed as a percentage of the control untreated well absorbance and plotted vs. drug concentration. IC50 values, the drug concentrations that reduce the mean absorbance at 570 nm to 50% of those in the untreated control wells, were calculated by the four-parameter logistic (4-PL) model. The evaluation was based on means from at least four independent experiments.
In general terms: Tetrazolium dyes change colour on reduction, which living cells bring about.

The subject of series [2] is BxPC-3 cells (KRAS-wild-type PDAC). The series can be described thus: 2D cytotoxicity, MTT assay, BxPC-3. The note with it: Homo sapiens, BXPC-3; 72 h exposure, MTT test, 2D culture; read-out: IC50 (µM) ± S.D. BxPC-3 (2D). It counts as cell-based. Here is the method:
as §2, §3, §4, §5

For a further series, the system named is BxPC-3 spheroids. The series can be described thus: 3D spheroid cytotoxicity, acid phosphatase (APH) assay, BxPC-3. In kind it is cell-based. The conditions noted are these: Homo sapiens, 72 h, acid phosphatase (APH) test, read-out: IC50 (µM) ± S.D. BxPC-3 (3D spheroids).
The target of the next series is T2, recombinant human PDK4 (Homo sapiens, UniProt Q16654).
T2 construct: purchased Abcam
T2 sequence (Q16654 whole entry): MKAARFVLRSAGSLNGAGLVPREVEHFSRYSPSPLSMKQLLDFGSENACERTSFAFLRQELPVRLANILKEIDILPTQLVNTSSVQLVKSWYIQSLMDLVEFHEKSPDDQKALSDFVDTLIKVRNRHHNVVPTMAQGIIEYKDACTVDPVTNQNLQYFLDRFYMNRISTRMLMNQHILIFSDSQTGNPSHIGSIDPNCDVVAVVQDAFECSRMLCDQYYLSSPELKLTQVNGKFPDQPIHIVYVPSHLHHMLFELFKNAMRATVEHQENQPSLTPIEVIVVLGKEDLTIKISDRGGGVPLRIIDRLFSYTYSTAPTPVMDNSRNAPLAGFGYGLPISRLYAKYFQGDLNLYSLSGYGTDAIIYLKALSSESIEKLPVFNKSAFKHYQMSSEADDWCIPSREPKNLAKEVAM
The series can be described thus: PDK4 ADPGlo Kinase Assay. It counts as biochemical. The note with it: 1.5 µM compound, 30 min, room temperature. Here is the method: The ability of the tested compounds to hamper the activity of PDK1-4 isoforms was firstly evaluated by means of a chemioluminescent assay, the ADPGlo™ Kinase Assay kit (Promega Corporation, Madison, WI, USA). The results obtained by incubating PDK1-4 isoforms for 30 min at room temperature with 1.5 µM of tested compounds are depicted in Figure 3 panel A as a heat-map summary of the inhibition percentage on PDK1-4 enzymatic activity. All the newly synthesized compounds were able to inhibit the pyruvate dehydrogenase kinases, although to a different extent and showing a preferential activity towards the PDK1 and PDK4 isoforms. […] Conversely, all tested 1,2,4-triazin-3-amines were barely effective in blocking PDK2 activity at 1.5 µM concentration. In addition, IC50 values on the PDK1 isoform were also calculated for all synthesized derivatives and the results are shown in Table 2.
as §1

Consider `Cn1cc(-c2nc(N)nnc2-c2cn(C)c3ncc(Br)cc23)c2cc(Br)ccc21` [5d, 5-(5-Bromo-1-methyl-1H-indol-3-yl)-6-(5-bromo-1-methyl-1H-pyrrolo[2,3-b]pyridin-3-yl)-1,2,4-triazin-3-amine], for which the melting point is 333.7 °C. For the same compound, the concentration for half-maximal inhibition (IC50) with PSN-1 spheroids was 216 ± 13.6 µM. Besides, at recombinant human PDK1 (1.5 µM compound, 30 min, room temperature), the “inhibition of PDK1 enzymatic activity” value is on record as “totally hampered”. Besides, the IC50 on recombinant human PDK1 (isolated PDK1 isoform, four-parameter logistic model, mean of 3 independent experiments, read-out: IC50 (µM) ± S.D. PDK1) stood at 0.05 ± 0.02 µM. For the same compound, at recombinant human HSP90 (1.5 µM compound), the “inhibition of HSP90 enzyme activity” value was “completely abolish”. The IC50 on recombinant human HSP90 (isolated HSP90, four-parameter logistic model, mean of 3 independent experiments, read-out: IC50 (µM) ± S.D. HSP90) was determined as 0.07 ± 0.01 µM. Besides, the IC50 in series [1] worked out at 21.3 ± 3.5 µM. Moreover, the IC50 in series [2] was 26.7 ± 6.1 µM. Further, the IC50 in the series on BxPC-3 spheroids stood at 198 ± 14.2 µM. The “inhibition of PDK4 enzymatic activity” value on recombinant human PDK4 is “completely suppress”.

What is called IC50 is the midpoint of a concentration-inhibition curve. A word on the melting point: it is the temperature, or range, at which the solid turns liquid.
